Results taken from patent publication US20220220106A1, “QUINOLINE COMPOUNDS AND PHARMACEUTICAL COMPOSITIONS AND USES THEREOF” (Academy of Military Medical Sciences, priority 2019, published 2022).

Experiments:
[1] = target: T1, mTORC1 (Homo sapiens, UniProt P42345); test: Western blot, phosphorylation of Thr389 of p70S6K1 in RD cells (mTORC1 inhibition); assay type: cell-based; details: 20 μM, 2 hours, Western blot (FIG. 1)
T1 construct: endogenous in cells; host or cells: RD cells
Procedure: In order to test the inhibitory activity of the synthesized compounds on the two mTOR complexes, the inhibitory activity experiments of mTORC1 and mTORC2 were carried out. Since mTORC1 and mTORC2 exerted their function by activating the phosphorylation of downstream substrates, the inhibitory activity of the compounds on mTORC1 and mTORC2 could be determined by detecting the phosphorylation levels of the Thr389 site of mTORC1 downstream substrate p70S6K1 and the Ser473 site of mTORC2 downstream substrate Akt.
Pretreatment of Compound:
(1) RD cells were cultured in DMEM medium containing 10% FBS and 1×PS (penicillin and streptomycin were at concentrations 100 IU and 100 μg/mL, respectively) at 37° C. and 5% CO2.
(2) The RD cells (5×10^5 cells/2 mL medium) were inoculated into a 6-well plate and incubated at 37° C. and 5% CO2 for 24 hours.
(3) The cells were washed once with PBS, and the cells were cultured in serum-free medium without nutrients overnight.
(4) Formulation of compounds: […]
Preparation of insulin medium: Insulin was diluted in DMEM medium containing 10% FBS and 1×PS so that the final concentration of insulin was 167 nM.
Pretreatment of compound to be tested: The compound was dissolved in DMSO so that the concentration of the test compound was 20 mM, and the compound was diluted in 167 nM insulin medium to reach a concentration of 20 μM.
Preparation of rapamycin solution: Rapamycin was dissolved in DMSO to a concentration of 10 mM, and the rapamycin was diluted in 167 nM insulin medium to reach a concentration of 20 μM.
(5) The serum-free medium in each well was removed.
(6) 2 mL of complete medium containing DMSO was added to each well as a control carrier. The final concentration of DMSO was 0.2%.
(7) 2 mL of 20 μM rapamycin solution and 20 μM the compound to be tested were added to the designated wells, respectively. The final concentration of DMSO was 0.2%.
(8) The cells were incubated for 2 hours at 37° C. and 5% CO2.
Protein extraction and concentration determination:
(1) The cells were washed once with refrigerated PBS, and then the PBS was discarded.
(2) 150 μL of cell extraction buffer (RIPA, […], catalog number: C1053) was transferred into each well to lyse the cells, and then the resulting cell solution were incubated on ice for 30 minutes.
(3) Centrifugation was performed at 14000 rpm (13000× g) for 30 minutes at 4° C.
(4) The supernatant was transferred into a new eppendorf tube, and the cell lysate was stored at −80° C. before testing.
(5) The protein concentration was determined by BCA method.
Preparation of Buffer Solutions:
(1) 100× Protease inhibitor (Beyotime, catalog number: P1005): 1 mL of redistilled water was added to the protease inhibitor and stirred gently until the solid was completely dissolved.
(2) Lysis Buffer: […] of 100× protease inhibitor and 2× phosphatase inhibitor Cocktails PhosSTOP (Beyotime, catalog number: P1082) were added to 100 mL of the cell extract, and stirred gently until it was completely dissolved.
(3) Electrophoresis Running Buffer:
10×MOPS buffer: 52.33 g of MOPS, 30.29 g of Tris base, 10 mL of 0.5 mol/L EDTA (pH 8.5) and 5 g of SDS was dissolved in 400 mL of redistilled water, stirred to dissolve, and the pH was adjusted to 7.5, then redistilled water was added again to reach a volume of 500 mL; 1×MOPS: 100 mL of 10×MOPS was diluted with redistilled water to 1000 mL.
(4) 1× Transfer Buffer: […] of 10× transfer buffer (144 g of glucine, 30.3 g of trisbase, and distilled water were mixed to reach a volume of 1 L) and 400 mL of methanol were dissolved in 1500 mL of redistilled water, and then the redistilled water was added to reach a volume of 2000 mL. […]

[2] = test system: RD cells; test: Detection of cytotoxicity in RD cells (CellTiter-Glo); assay type: cell-based; details: 4 days, CellTiter-Glo, median toxic dose
How it was run: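 RD cells (1*10^5/mL) cultured 4 days at 37 °C with 10 compound concentrations from 3-fold dilution of a 400 μM pretreatment solution, final being 0.5 times that. Viability by CellTiter-Glo luminescence versus cell control; TD50 from S-curve fit; SI=TD50/IC50.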

| SMILES | p70 phosphorylation expression level [1] | TD50 [2] [µM] |
| --- | --- | --- |
| COc1ccc(-c2ccc3ncc4ccc(=O)n(-c5cccc(C(F)(F)F)c5)c4c3c2)cn1 [HTL-7-03, 9-[3-(6-methoxy)pyridyl]-2-oxo-1-[3-(trifluoromethyl)phenyl]-1,2-dihydrobenzo[h][1,6]naphthyridine] | significantly down-regulate | 0.13 ± 0.03 |
| O=C1Cc2cc(-c3ccc4ncc5ccc(=O)n(-c6cccc(C(F)(F)F)c6)c5c4c3)ccc2N1 [HTL-7-04, 9-[5-(2-oxo)indolyl]-2-oxo-1-[3-(trifluoromethyl)phenyl]-1,2-dihydrobenzo[h][1,6]naphthyridine] | significantly down-regulate | 10.27 ± 7.81 |
| CCCC(=O)Nc1ccc(-c2ccc3ncc4ccc(=O)n(-c5cccc(C(F)(F)F)c5)c4c3c2)cn1 [HTL-7-05, 9-[3-(6-butyrylamino)pyridyl]-2-oxo-1-[3-(trifluoromethyl)phenyl]-1,2-dihydrobenzo[h][1,6]naphthyridine] | significantly down-regulate | 0.75 ± 0.36 |
| COc1ncc(-c2ccc3ncc4ccc(=O)n(-c5cccc(C(F)(F)F)c5)c4c3c2)cn1 [HTL-7-06, 9-[5-(2-methoxy)pyrimidyl]-2-oxo-1-[3-(trifluoromethyl)phenyl]-1,2-dihydrobenzo[h][1,6]naphthyridine] | significantly down-regulate | 0.17 ± 0.06 |
| CCCCC(=O)Nc1ccc(-c2ccc3ncc4ccc(=O)n(-c5cccc(C(F)(F)F)c5)c4c3c2)cn1 [HTL-7-08, 9-[3-(6-valerylamino)pyridyl]-2-oxo-1-[3-(trifluoromethyl)phenyl]-1,2-dihydrobenzo[h][1,6]naphthyridine] | significantly down-regulate | 0.70 ± 0.48 |
| O=C(Cc1ccccc1)Nc1ccc(-c2ccc3ncc4ccc(=O)n(-c5cccc(C(F)(F)F)c5)c4c3c2)cn1 [HTL-7-10, 9-[3-(6-phenylacetylamino)pyridyl]-2-oxo-1-[3-(trifluoromethyl)phenyl]-1,2-dihydrobenzo[h][1,6]naphthyridine] | significantly down-regulate | 0.74 ± 0.72 |
| COc1ccc(CC(=O)Nc2ccc(-c3ccc4ncc5ccc(=O)n(-c6cccc(C(F)(F)F)c6)c5c4c3)cn2)cc1 [HTL-7-11, 9-{3-[6-(4-methoxy)phenylacetylamino]pyridyl}-2-oxo-1-[3-(trifluoromethyl)phenyl]-1,2-dihydrobenzo[h][1,6]naphthyridine] | significantly down-regulate | 0.19 ± 0.10 |
| O=c1ccc2cnc3ccc(C4=CCC5(CC4)OCCO5)cc3c2n1-c1cccc(C(F)(F)F)c1 [HTL-7-13, 9-(1,4-dioxa-spiro[4.5]dec-7-en-8-yl)-2-oxo-1-[3-(trifluoromethyl)phenyl]-1,2-dihydrobenzo[h][1,6]naphthyridine] | significantly down-regulate | 200 ± 0 |
| O=C(Nc1ccc(-c2ccc3ncc4ccc(=O)n(-c5cccc(C(F)(F)F)c5)c4c3c2)cn1)OCc1ccccc1 [HTL-7-14, 9-[3-(6-benzyloxyamido)pyridyl]-2-oxo-1-[3-(trifluoromethyl)phenyl]-1,2-dihydrobenzo[h][1,6]naphthyridine] | significantly down-regulate | 1.00 ± 0.81 |
| O=C(Nc1ccc(-c2ccc3ncc4ccc(=O)n(-c5cccc(C(F)(F)F)c5)c4c3c2)cn1)Oc1ccccc1 [HTL-7-15, 9-[3-(6-phenoxyamido)pyridyl]-2-oxo-1-[3-(trifluoromethyl)phenyl]-1,2-dihydrobenzo[h][1,6]naphthyridine] | significantly down-regulate | 0.20 ± 0.09 |
| CN(C)c1ccc(-c2ccc3ncc4ccc(=O)n(-c5cccc(C(F)(F)F)c5)c4c3c2)cn1 [HTL-7-16, 9-[3-(6-N,N-dimethyl)pyridyl]-2-oxo-1-[3-(trifluoromethyl)phenyl]-1,2-dihydrobenzo[h][1,6]naphthyridine] | significantly down-regulate | 0.17 ± 0.06 |
| CN1CCN(c2ccc(-c3ccc4ncc5ccc(=O)n(-c6cccc(C(F)(F)F)c6)c5c4c3)cn2)CC1 [HTL-7-17, 9-{3-[6-(4-methylpiperazin-1-yl)pyridyl]}-2-oxo-1-[3-(trifluoromethyl)phenyl]-1,2-dihydrobenzo[h][1,6]naphthyridine] | significantly down-regulate | 0.18 ± 0.15 |
| O=c1ccc2cnc3ccc(-c4ccc(N5CCOCC5)nc4)cc3c2n1-c1cccc(C(F)(F)F)c1 [HTL-7-18, 9-[3-(6-morpholin-4-yl)pyridyl]-2-oxo-1-[3-(trifluoromethyl)phenyl]-1,2-dihydrobenzo[h][1,6]naphthyridine] | significantly down-regulate | 2.91 ± 1.16 |
| COc1cc(-c2ccc3ncc4ccc(=O)n(-c5cccc(C(F)(F)F)c5)c4c3c2)cnc1N [HTL-7-19, 9-[3-(6-amino-5-methoxy)pyridyl]-2-oxo-1-[3-(trifluoromethyl)phenyl]-1,2-dihydrobenzo[h][1,6]naphthyridine] | significantly down-regulate | 0.06 ± 0.02 |
| O=c1ccc2cnc3ccc(-c4ccc(N5CCCC5)nc4)cc3c2n1-c1cccc(C(F)(F)F)c1 [HTL-7-20, 9-[3-(6-pyrrolidinyl)pyridyl]-2-oxo-1-[3-(trifluoromethyl)phenyl]-1,2-dihydrobenzo[h][1,6]naphthyridine] | significantly down-regulate | 1.79 ± 0.67 |
| CC(C)(C)OC(=O)Nc1ccc(-c2ccc3ncc4ccc(=O)n(-c5cccc(C(F)(F)F)c5)c4c3c2)cn1 [HTL-7-21, 9-[3-(6-tert-butoxycarbonylamino)pyridyl]-2-oxo-1-[3-(trifluoromethyl)phenyl]-1,2-dihydrobenzo[h][1,6]naphthyridine] | significantly down-regulate | 0.69 ± 0.50 |
